Measurements from patent US20220073554A1, “LINCOSAMIDE ANTIBIOTICS AND USES THEREOF” (President and Fellows of Harvard College, priority 2017, published 2022).
In brackets after ≈: the same amount, converted by molar mass. Where two headings read alike, the source gives them in different places.

Columns and labels:
Assay type in all cases: cell-based
E. coli ATCC 25922 = experiment: MIC against E. coli ATCC 25922; settings: Escherichia coli, ATCC25922
E. coli MMX 0121 ΔTolC = experiment: MIC against E. coli MMX 0121 ΔTolC; settings: Escherichia coli
P. aeruginosa ATCC 27853 = experiment: MIC against P. aeruginosa ATCC 27853; settings: Pseudomonas aeruginosa, ATCC27853
[1] = test system: P. aeruginosa MMX 3476 Δmex; experiment: MIC against P. aeruginosa MMX 3476 Δmex; settings: Pseudomonas aeruginosa
[2] = test system: S. pneumoniae MMX 3028 cErmB; experiment: MIC against S. pneumoniae MMX 3028 cErmB; settings: Streptococcus pneumoniae, MMX3028CERMB
B. fragilis ATCC 25285 = experiment: MIC against B. fragilis ATCC 25285; settings: Bacteroides fragilis, ATCC25285
S. aureus BAA 977 iErmA = experiment: MIC against S. aureus BAA 977 iErmA; settings: Staphylococcus aureus, BAA977
[3] = test system: S. aureus Micromyx USA 300; experiment: MIC against S. aureus Micromyx USA 300; settings: Staphylococcus aureus, USA300
[4] = test system: E. faecalis MMX 847 Macrolide-Resistant; experiment: MIC against E. faecalis MMX 847 Macrolide-Resistant; settings: Enterococcus faecalis
S. aureus ATCC 29213 = experiment: MIC against S. aureus ATCC 29213; settings: Staphylococcus aureus
H. influenzae ATCC 49247 = experiment: MIC against H. influenzae ATCC 49247; settings: Haemophilus influenzae, ATCC49247
S. aureus MMX 3035 cErmA = experiment: MIC against S. aureus MMX 3035 cErmA; settings: Staphylococcus aureus, MMX3035CERMA
[5] = test system: E. coli MMX TolC parent strain; experiment: MIC against E. coli MMX TolC parent strain; settings: Escherichia coli
E. faecalis ATCC 29212 = experiment: MIC against E. faecalis ATCC 29212; settings: Enterococcus faecalis
S. pyogenes ATCC 19615 = experiment: MIC against S. pyogenes ATCC 19615; settings: Streptococcus pyogenes, ATCC19615; S. pyogenes ATCC 19615; read-out: MIC
[6] = test system: S. pyogenes MMX 946 Macrolide-Resistant; experiment: MIC against S. pyogenes MMX 946 Macrolide-Resistant; settings: Streptococcus pyogenes
[7] = test system: P. aeruginosa MMX Mex parent strain; experiment: MIC against P. aeruginosa MMX Mex parent strain; settings: Pseudomonas aeruginosa
E. coli ATCC 15922 = experiment: MIC against E. coli ATCC 15922; settings: Escherichia coli, ATCC15922
[8] = test system: S. pneumoniae MMX 3031 cMefA; experiment: MIC against S. pneumoniae MMX 3031 cMefA; settings: Streptococcus pneumoniae, MMX3031CMEFA
S. pneumoniae ATCC 49619 = experiment: MIC against S. pneumoniae ATCC 49619; settings: Streptococcus pneumoniae, ATCC49619; S. pneumoniae ATCC 49619; read-out: MIC
C. difficile BAA 1805 = experiment: MIC against C. difficile BAA 1805; settings: Clostridioides difficile, BAA1805
[9] = test system: S. aureus MP-549 msr(a) USA 300; experiment: MIC against S. aureus MP-549 msr(a) USA 300; settings: Staphylococcus aureus, USA300, S. aureus MP-549 msr(a) USA 300
[10] = S. aureus Micromyx USA 300, read-out: MIC
[11] = H. influenzae ATCC 49247, read-out: MIC
[12] = ATCC29213, S. aureus ATCC 29213, read-out: MIC

Structure (SMILES)	MIC (E. coli ATCC 25922) [µg/mL]	MIC (E. coli MMX 0121 ΔTolC) [µg/mL]	MIC (P. aeruginosa ATCC 27853) [µg/mL]	MIC [1] [µg/mL]	MIC [2] [µg/mL]	MIC (B. fragilis ATCC 25285) [µg/mL]	MIC (S. aureus BAA 977 iErmA) [µg/mL]	MIC [3] [µg/mL]	MIC [4] [µg/mL]	MIC (S. aureus ATCC 29213; ATCC29213) [µg/mL]	MIC (H. influenzae ATCC 49247) [µg/mL]	MIC (S. aureus MMX 3035 cErmA) [µg/mL]	MIC [5] [µg/mL]	MIC (S. pyogenes ATCC 19615) [µg/mL]	MIC [6] [µg/mL]	MIC [7] [µg/mL]	MIC [3, 10] [µg/mL]	MIC (S. aureus ATCC 29213; [12]) [µg/mL]	MIC (E. faecalis ATCC 29212; ATCC29212, read-out: MIC) [µg/mL]	MIC (E. coli ATCC 15922) [µg/mL]	further results
C[C@@H](O)[C@@H](NC(=O)[C@H]1NC[C@@H]2CC=CCO[C@H]21)[C@H]1OC(CN=[N+]=[N-])[C@H](O)[C@H](O)C1O (stereo partly drawn) [FSA-211064]	> 64	> 64	> 64	> 64	> 64	> 64	> 64	> 64	> 64	> 64	> 64	> 64	> 64	4 (≈ 9.36 µM)	> 64	> 64					MIC (E. faecalis ATCC 29212; ATCC29212): > 64 µg/mL
CSC1O[C@H]([C@H](NC(=O)[C@H]2NC[C@@H]3C[C@@H](c4ccc(C(F)(F)F)cc4)CCO[C@H]32)[C@H](C)Cl)C(O)[C@@H](O)[C@H]1O (stereo partly drawn) [FSA-509019]																	0.5 (≈ 0.858 µM)				MIC (P. aeruginosa ATCC 27853; P. aeruginosa ATCC 27853, read-out: MIC): > 64 µg/mL; MIC (E. coli ATCC 15922; E. coli ATCC 15922, read-out: MIC): > 64 µg/mL; MIC (H. influenzae ATCC 49247; [11]): 4 µg/mL (≈ 6.86 µM); MIC ([7]; P. aeruginosa MMX Mex parent strain, read-out: MIC): > 64 µg/mL
CSC1O[C@H]([C@H](NC(=O)[C@H]2NC[C@@H]3CC(c4ccccc4)=CCO[C@H]32)[C@H](C)Cl)C(O)[C@@H](O)[C@H]1O (stereo partly drawn) [FSA-507056]	> 32	> 32	> 32	> 32	> 32	> 32	1 (≈ 1.95 µM)		> 32		> 32	> 32	> 32		> 32	> 32	0.5 (≈ 0.975 µM)	1 (≈ 1.95 µM)	2 (≈ 3.9 µM)		
CSC1O[C@H]([C@H](NC(=O)[C@H]2NC[C@@H]3CC(c4ccc(F)cc4)=CCO[C@H]32)[C@H](C)Cl)C(O)[C@@H](O)[C@H]1O (stereo partly drawn) [FSA-507057]			> 64	> 64			1 (≈ 1.88 µM)		> 64			> 64	> 64		> 64	> 64	1 (≈ 1.88 µM)	2 (≈ 3.77 µM)	1 (≈ 1.88 µM)	> 64	MIC [8]: ≤ 0.06 µg/mL; MIC (S. pneumoniae ATCC 49619): ≤ 0.06 µg/mL
CSC1O[C@H]([C@H](NC(=O)[C@@H]2[C@@H]3OCC=CC[C@H]3CN2C)[C@H](C)Sc2ccc(-c3cncnc3)cc2)C(O)[C@@H](O)[C@H]1O (stereo partly drawn) [FSA-212034]		1 (≈ 1.66 µM)	> 64	> 64					> 64				> 64	≤ 0.06		> 64				> 64	MIC (C. difficile BAA 1805): 0.5 µg/mL (≈ 0.829 µM); MIC ([2]; S. pneumoniae MMX 3028 cErmB, read-out: MIC): 4 µg/mL (≈ 6.64 µM); MIC (B. fragilis ATCC 25285; B. fragilis ATCC 25285, read-out: MIC): 1 µg/mL (≈ 1.66 µM); MIC [9]: 0.5 µg/mL (≈ 0.829 µM); MIC [8]: ≤ 0.06 µg/mL; MIC (H. influenzae ATCC 49247; [11]): 4 µg/mL (≈ 6.64 µM); MIC ([6]; S. pyogenes MMX 946 Macrolide-Resistant (MacRes), read-out: MIC): 2 µg/mL (≈ 3.32 µM); MIC (S. pneumoniae ATCC 49619): ≤ 0.06 µg/mL
CSC1O[C@H]([C@H](NC(=O)[C@H]2NC[C@@H]3C=C(c4ccc(F)cc4)CCO[C@@H]23)[C@H](C)Cl)C(O)[C@@H](O)[C@H]1O (stereo partly drawn) [FSA-507052]		> 32	> 32	> 32	> 32	> 32	2 (≈ 3.77 µM)		> 32		> 32	> 32	> 32		> 32	> 32	0.5 (≈ 0.942 µM)	2 (≈ 3.77 µM)	1 (≈ 1.88 µM)	> 32	
CSC1O[C@H]([C@H](NC(=O)[C@H]2NC[C@@H]3CC(c4ccc(C(F)(F)F)cc4)=CCO[C@H]32)[C@H](C)Cl)C(O)[C@@H](O)[C@H]1O (stereo partly drawn) [FSA-507060]			> 64	> 64			1 (≈ 1.72 µM)									> 64	0.12 (≈ 0.207 µM)	2 (≈ 3.44 µM)	8 (≈ 13.8 µM)		MIC (S. pneumoniae ATCC 49619): 0.5 µg/mL (≈ 0.861 µM)
CSC1O[C@H]([C@H](NC(=O)[C@H]2NC[C@@H]3C=C(c4ccccc4)CCO[C@@H]23)[C@H](C)Cl)C(O)[C@@H](O)[C@H]1O (stereo partly drawn) [FSA-507031]	> 32	> 32	> 32	> 32	> 32	> 32	> 32	> 32	> 32	> 32		> 32	> 32		> 32	> 32					MIC (C. difficile BAA 1805): > 32 µg/mL; MIC (H. influenzae ATCC 49247; [11]): 8 µg/mL (≈ 15.6 µM); MIC (E. faecalis ATCC 29212; ATCC29212): > 32 µg/mL
CSC1O[C@H]([C@H](NC(=O)[C@H]2NC[C@@H]3C=C(c4ccc(C(F)(F)F)cc4)CCO[C@@H]23)[C@H](C)Cl)C(O)[C@@H](O)[C@H]1O (stereo partly drawn) [FSA-507053]			> 64	> 64					> 64			> 64	> 64	≤ 0.06		> 64	0.5 (≈ 0.861 µM)		2 (≈ 3.44 µM)	> 64	MIC (C. difficile BAA 1805; C. difficile BAA 1805, read-out: MIC): 8 µg/mL (≈ 13.8 µM)
Cc1ccc(S(=O)(=O)OCC2O[C@H]([C@H](NC(=O)[C@H]3NC[C@@H]4CC=CCO[C@H]43)[C@@H](C)O)C(O)[C@@H](O)[C@H]2O)cc1 (stereo partly drawn) [FSA-211030]	> 64	> 64	> 64	> 64	> 64	> 64	> 64	> 64	> 64	> 64	> 64	> 64	> 64	1 (≈ 1.8 µM)	> 64	> 64					MIC (C. difficile BAA 1805): > 64 µg/mL; MIC (E. faecalis ATCC 29212; ATCC29212): > 64 µg/mL
